The values below come from ChEMBL document CHEMBL4265916, “Synthesis and antiproliferative activities of novel quartenary ammonium spinosyn derivatives” (Bioorg Med Chem Lett, 2018).

The source made the active and inactive calls. The calls are words filed in the database; no cut-off is given here.

A word on the IC50: it is the concentration that inhibits the measured activity by half. Higher therefore signals lower potency.

The test system of assay [1] is NCI-H460. As to the kind of experiment: Induction of apoptosis in human NCI-H460 cells assessed as late apoptotic cells at 32 uM after 48 hrs by Annexin V-FITC/propidium iodide staining-based flow cytometric analysis (reference value: 1.80%). The assay is classed as functional. (In general: In flow cytometry, cells or beads pass a laser one at a time.)
Assay [2] concerns NCI-H460. Put plainly: Growth inhibition of human NCI-H460 cells at 32 uM after 48 hrs by MTT assay. The class given is functional, cell-based.
Assay [3] concerns NCI-H460. Put plainly: Induction of apoptosis in human NCI-H460 cells assessed as viable cells at 64 uM after 48 hrs by Annexin V-FITC/propidium iodide staining-based flow cytometric analysis (reference value: 93.9%). The assay is classed as functional. To be noted: NCI-H460, 48 h, read-out: Activity.
In assay [4] the test system is NCI-H460. As to the kind of experiment: Antiproliferative activity against human NCI-H460 cells after 48 hrs by MTT assay. The assay is classed as functional, cell-based. As to conditions: NCI-H460, 48 h. A general note: Formazan colour is commonly taken as a measure of viable cells.
Assay [5] deals with MCF7. Put plainly: Antiproliferative activity against human MCF7 cells at 50 uM after 48 hrs by MTT assay. The class given is functional.
Another assay relates to HCT-116. Put plainly: Antiproliferative activity against human HCT116 cells after 48 hrs by MTT assay. The assay is classed as functional, cell-based. As to conditions: HCT-116, 48 h.
In assay [6] the test system is NCI-H460. Put plainly: Induction of apoptosis in human NCI-H460 cells assessed as early apoptotic cells at 64 uM after 48 hrs by Annexin V-FITC/propidium iodide staining-based flow cytometric analysis (reference value: 2.17%). The class given is functional.
The subject of assay [7] is NCI-H460. As to the kind of experiment: Induction of apoptosis in human NCI-H460 cells assessed as necrotic cells at 32 uM after 48 hrs by Annexin V-FITC/propidium iodide staining-based flow cytometric analysis (reference value: 2.11%). The class given is functional.
Assay [8] relates to NCI-H460. As to the kind of experiment: Induction of apoptosis in human NCI-H460 cells assessed as early apoptotic cells at 32 uM after 48 hrs by Annexin V-FITC/propidium iodide staining-based flow cytometric analysis (reference value: 2.17%). The class given is functional.
A further assay deals with U-87 MG. As to the kind of experiment: Antiproliferative activity against human U87MG cells after 48 hrs by MTT assay. The class given is functional, cell-based, U-87MG ATCC.
Assay [9] concerns NCI-H460. As to the kind of experiment: Inhibition of oxygen consumption rate in human NCI-H460 cells at 32 uM after 1 hr. The assay is classed as functional.
For assay [10], the system named is NCI-H460. Put plainly: Induction of apoptosis in human NCI-H460 cells assessed as necrotic cells at 64 uM after 48 hrs by Annexin V-FITC/propidium iodide staining-based flow cytometric analysis (reference value: 2.11%). The class given is functional.
The subject of assay [11] is NCI-H460. As to the kind of experiment: Induction of apoptosis in human NCI-H460 cells assessed as viable cells at 32 uM after 48 hrs by Annexin V-FITC/propidium iodide staining-based flow cytometric analysis (reference value: 93.9%). The assay is classed as functional. As to conditions: NCI-H460, 48 h, read-out: Activity.
For assay [12], the system named is NCI-H460. Put plainly: Induction of apoptosis in human NCI-H460 cells after 48 hrs by Annexin V-FITC/propidium iodide staining-based flow cytometric analysis. The class given is functional, cell-based.
The test system of assay [13] is MCF7. Put plainly: Antiproliferative activity against human MCF7 cells after 48 hrs by MTT assay. The class given is functional, cell-based. As to conditions: MCF7, 48 h.
For assay [14], the system named is NCI-H460. Put plainly: Induction of apoptosis in human NCI-H460 cells assessed as late apoptotic cells at 64 uM after 48 hrs by Annexin V-FITC/propidium iodide staining-based flow cytometric analysis (reference value: 1.80%). The class given is functional.

Consider `CC[C@H]1CCC[C@H](O[C@H]2CC[C@H](N(C)C)[C@@H](C)O2)[C@@H](C)C(=O)C2=C[C@@H]3[C@@H](C=C[C@@H]4C[C@@H](O[C@@H]5O[C@@H](C)[C@H](OC)[C@@H](OC)[C@H]5OC)C[C@@H]34)[C@@H]2CC(=O)O1` [SPINOSYN A], for which the Activity with NCI-H460 [1] is recorded as 4.41%; with MCF7 [5], 92.6%; with NCI-H460 [6], 4.53%; with NCI-H460 [7], 1.69%; in the assay with NCI-H460 [8], 3.11%; in the assay on NCI-H460 [10] it was 2.33%. Besides, the results for the Activity result with NCI-H460 [12] and with NCI-H460 [14] were “Dose-dependent effect” and 5.33%, respectively. Also, the “growth inhibition (GI)” value in the assay with NCI-H460 [2] was “inactive”. Moreover, the viability at 64 µM in the assay on NCI-H460 [3] was determined as 87.8%. Moreover, the half-maximal inhibitory concentration (IC50) with NCI-H460 [4] is 66 µM; in the assay with HCT-116, 10.7 µM; with U-87 MG it was 104 µM; with MCF7 [13], 16.7 µM. Further, in the assay with NCI-H460 [9], the inhibition entry was “Active”. Further, in the assay on NCI-H460 [11], the viability at 32 µM is 90.8%.
